A short description of one data set: Acute toxicity in mice. The conditions noted are these: mouse, in vivo, male mice. The procedure: (§1) Using ddY male mice and Wistar male rats, the acute toxicity of the compounds of the present invention was examined with respect to LD50 according to the method proposed by K. Takagi et al. (K. Takagi and H. Ozawa, "Expeprimental Techniques in Pharmacology," p200-206 (1960), NANZANDO CO., LTD., Japan).
(§2) Compounds of the present invention were tested with respect to acute toxicities according to the method as mentioned hereinbefore.

For a further data set, the system named is bronchial tubes. Nature of the data set: Inhibition of histamine contraction of bronchial tubes (relaxation of bronchial tubes). Conditions: Cavia porcellus; guinea pig bronchial tube, 10 μM histamine; Table 16; read-out: ED50 (50% decrease of histamine contraction of bronchial tubes).
In another data set the test system is vertebral artery. Nature of the data set: Blood flow increase of vertebral artery in anesthetized dogs, i.v. The data set is classed as in vivo, dog (mongrel). The conditions noted are these: Canis lupus familiaris, iv, dog; for change in vivo at 0.3 mg/kg: i.v., read-out: Increase in vertebral artery blood flow. The procedure: (§3) 2. Blood Flow Increase of Coronary, Vertebral and Femoral Arteries
(§4) A plethysmographic probe (manufactured and sold by NIHON KODEN CO., LTD., Japan) was mounted on the coronary, vertebral and femoral arteries, and blood flow was measured by means of an electromagnetic blood flowmeter (type:MF-27, manufactured and sold by NIHON KODEN CO., LTD., Japan). Under these conditions, the compounds of the present invention were intravenously administered through a polyethylene tube inserted to a femoral veinlet, and the change in blood flow was measured for 30 minutes by means of the electromagnetic blood flowmeter.
(§5) The effects (dilation of the arteries) of the compounds of the present invention on blood flow in coronary, vertebral and femoral arteries were examined according to the method as mentioned hereinbefore.

Another data set deals with coronary artery. Nature of the data set: Blood flow increase of coronary artery in anesthetized dogs, i.v. The data set is classed as in vivo, dog (mongrel). The conditions noted are these: Canis lupus familiaris, iv, dog; for change in vivo at 0.3 mg/kg: i.v., read-out: Increase in coronary artery blood flow. The procedure:
as §3, §4, §5

In a further data set the test system is femoral artery. Put plainly: Blood flow increase of femoral artery in anesthetized dogs, i.v. The conditions noted are these: Canis lupus familiaris, iv, dog; for change in vivo at 0.3 mg/kg: i.v., read-out: Increase in femoral artery blood flow. The data set is classed as in vivo, dog (mongrel). The procedure:
as §3, §4, §5

A short description of a further data set: Acute toxicity in rats. The conditions noted are these: in vivo, male rat. The procedure:
as §1, §2

A further data set deals with mesenteric artery. Nature of the data set: Relaxation of mesenteric artery (KCl-contracted). Conditions: Oryctolagus cuniculus; rabbit mesenteric artery contracted with 15 to 20 mM KCl; read-out: ED50 (concentration attaining 50% of complete relaxation).

pEC50: −log10 of the molar value.

As usually defined, the LD50 is the dose at which mortality reaches 50%. A lower LD50 goes with greater toxicity. As for `NC1CCCN(S(=O)(=O)c2cccc3cnccc23)C1` (stereo not drawn) [Compound (63), 1-(5-isoquinolinesulfonyl)-3-aminopiperidine], the median lethal dose (LD50) in the data set “Acute toxicity in mice” (iv) turned out to be 176 mg/kg; in the data set “Acute toxicity in mice” (po), 1120 mg/kg; in the data set “Acute toxicity in rats” (iv), 194 mg/kg; in the data set “Acute toxicity in rats” (po) it was 1220 mg/kg. Moreover, the pEC50 in the data set on bronchial tubes and with mesenteric artery was 5.52 in each case. The results for the change in vivo at 1 mg/kg with vertebral artery (1.0 mg/kg), in the data set with coronary artery (1.0 mg/kg) and in the data set with femoral artery (1.0 mg/kg) were 95%, 128% and 38%, respectively. Further, the change in vivo at 0.3 mg/kg in the data set with vertebral artery came out at 72%; with coronary artery it was 91%; with femoral artery it was 20%.

Regarding `CCCCCCN(CCN)S(=O)(=O)c1cccc2cnccc12` [Compound (4), N-(2-aminoethyl)-N-hexyl-5-isoquinolinesulfonamide], the LD50 in the data set “Acute toxicity in mice” (iv) was determined as 95 mg/kg; in the data set “Acute toxicity in mice” (po) it was 1100 mg/kg; in “Acute toxicity in rats” (iv) it was 131 mg/kg; in the data set “Acute toxicity in rats” (po), 968 mg/kg. Moreover, the pEC50 with bronchial tubes was 5.52; in the data set with mesenteric artery, 6.00. Also, the results for the change in vivo at 0.3 mg/kg in the data set with vertebral artery, in the data set on coronary artery and in the data set on femoral artery were 170%, 188% and 38%, respectively.

Source of the values: patent US4798897A, “Isoquinoline derivatives” (Asahi Kasei Kogyo Kabushiki Kaisha, priority 1987, dated 1989).
